From BindingDB's records for doi:10.1021/jm020911e (Universit&#224, 2002)

Target: Adenosine receptor A3 (Bos taurus)
Assay: Displacement of [125I]AB-MECA from Adenosine A3 receptor in bovine cortical membranes in the presence of 20 nM DPCPX.

| SMILES | Ki |
| --- | --- |
| CCC(=O)CNc1nc(-c2ccccc2)nc2nc(C)cn12 [1-(7-Methyl-2-phenyl-imidazo[1,2-a][1,3,5]triazin-4-ylamino)-butan-2-one] | > 10000 nM |
| CC(=O)CNc1nc(-c2ccccc2)nc2nc(C)cn12 [1-(7-Methyl-2-phenyl-imidazo[1,2-a][1,3,5]triazin-4-ylamino)-propan-2-one] | > 10000 nM |
| CC(=O)Nc1nc(-c2ccccc2)nc2nc(C)cn12 [N-(7-Methyl-2-phenyl-imidazo[1,2-a][1,3,5]triazin-4-yl)-acetamide] | 231 nM |

Second part, the molecule after the results:

| Ki | SMILES |
| --- | --- |
| 1240 nM | O=C(Nc1nc(-c2ccccc2)nc2nc(-c3ccccc3)cn12)C1CCCC1 [Cyclopentanecarboxylic acid (2,7-diphenyl-imidazo[1,2-a][1,3,5]triazin-4-yl)-amide] |
| 17.4 nM | CC(C)c1cn2c(NC(=O)C3CCCC3)nc(-c3ccccc3)nc2n1 [Cyclopentanecarboxylic acid (7-isopropyl-2-phenyl-imidazo[1,2-a][1,3,5]triazin-4-yl)-amide] |
| 2250 nM | Cc1cn2c(NC3CCCC3)nc(-c3ccccc3)nc2n1 [Cyclopentyl-(7-methyl-2-phenyl-imidazo[1,2-a][1,3,5]triazin-4-yl)-amine] |
| 40 nM | CC(=O)Nc1nc(-c2ccccc2)nc2nc(-c3ccccc3)cn12 [N-(2,7-Diphenyl-imidazo[1,2-a][1,3,5]triazin-4-yl)-acetamide] |
